Among the data in patent US20260199423A1, “COMPOSITIONS COMPRISING AN ONCOLYTIC PEPTIDE AND CHITOSAN” (LYTIX BIOPHARMA AS, priority 2022, published 2026) are Survival values, retold here.

The assay concerns B16F1 melanoma cells. Kind of assay: Melanoma mouse model, injection into the tumor. The format is in vivo, C57BL/6NRj mice. The note with it: 50 μl into the tumor on two consecutive days; groups of 10 mice; FIG. 2. How it is done: The following compositions were prepared as described in Example 1 in aqueous acetic acid/acetate buffer, pH 5.2. The following chitosan was used in this study: chitosan medium molecular weight, 330 kDa, DAA 86% (manufacturer Chitinor, Norway). • 1: LTX-401, 5 mg/ml (free base) • 2: Chitosan, 1.2% (w/w) • 3: LTX-401, 5 mg/ml (free base) and chitosan, 1.2% (w/w) • 4: Control: aqueous acetic acid/acetate buffer
Immunocompetent C57BL/6NRj mice (JanVier Labs, France) were inoculated with B16F1 melanoma cells on day 0 by subcutaneous injection of 5×10^4 tumor cells per mouse/50 μl RPMI-1640 in the skin on the abdomen of the animal. The mice were divided into 4 groups of 10 mice each, and treatment was initiated when the tumors were palpable and reached the desired size of approximately 5 mm in diameter (40-80 mm^3). The respective compositions 1~4 were administered by injection into the tumor (50 μl) on two consecutive days (day 11 and 12 or day 12 and 13 or day 13 and 14, depending on tumor growth). The mice were monitored during the study by measuring the tumors and weighing the animals regularly. The tumor volume was measured using an electronic caliper and expressed as volume V=(L×W×W)/2, where W is the tumor width and L is the tumor length. […]

For `NCCNC(=O)C(CN)(CCCc1ccccc1)CCCc1ccccc1` [LTX-401], the Survival is 60%.
